Results published in patent US4169846A, “Cis-platinum (II) complex of trans-l-1,2-diaminocyclohexane” (priority 1976, dated 1979).
Where two headings read alike, the source gives them in different places.

Columns and labels:
leukemia P 388 = assay: Anti-tumor activity on mice against leukemia P 388; assay type: in vivo, CDF1 mice; conditions: days 1 and 5
Protocol: (§1) To test the anti-tumor activity of the compounds of the present invention, 100,000 cells/mouse of leukemia L 1210 and 1,000,000 cells/mouse of leukemia P 388 were transplanted by intraperitoneal injection to groups of CDF1 mice, respectively. One and 5 days after the transplantation, the test compound was administered by intraperitoneal injection to the mice.
(§2) The anti-tumor activity of the test compound was evaluated by means of T/C %, i.e., 100 times the mean survival period of the groups injected with the test compound divided by the means survival period of the comparison groups which were not injected with the test compound. The value of higher than 120% for L 1210 and higher than 125% for P 388 means that the test compound has a good effect.

[1] = system: ascites-tumor Sarcoma 180A; assay type: in vivo, ddN mice; conditions: for Growth Rate T/C (%): daily from one to five days
Protocol: To test the anti-tumor activity of the compounds of the present invention, cells of ascites-tumor Sarcoma 180A were transplanted by intraperitoneal injection to groups of ddN mice. From one to five days, the test compound was administered by intraperitoneal injection day after day. The ascites of the resulting mice was sampled to evaluate the anti-tumor activity of the test compound by means of the growth rate of the tumor, T/C % (groups with treatment/groups without treatment). In the table, the designations "-", "+", "++" and "+++" mean 100-66%, 65-41%, 40-11% and 10-0%, of the T/C %, respectively.

male mice (ddN strain) = assay: Acute toxicity test (intraperitoneal); assay type: in vivo; conditions: i.p., suspension in 0.3% CMC
Protocol: A suspension of the test substance in 0.3% CMC aqueous solution was intraperitoneally administered to the test mice in a dose amount of 0.5 ml per mouse.

leukemia L 1210 = assay: Anti-tumor activity on mice against leukemia L 1210; assay type: in vivo, CDF1 mice; conditions: days 1 and 5
Protocol: as §1, §2

Compound	T/C % (leukemia P 388; P 388, 25 mg/kg i.p.)	T/C % (leukemia P 388; P 388, 50 mg/kg i.p.)	T/C % (leukemia P 388; P 388, 100 mg/kg i.p.)	Evaluation ([1]; 3 mg/kg i.p.)	Growth Rate T/C (%) ([1]; 3 mg/kg i.p.)	Evaluation ([1]; 1 mg/kg i.p.)	Growth Rate T/C (%) ([1]; 1 mg/kg i.p.)	Evaluation ([1]; 10 mg/kg i.p.)	Growth Rate T/C (%) ([1]; 10 mg/kg i.p.)	also measured
O=C(O)C(=O)O.[NH-][C@@H]1CCCC[C@H]1[NH-].[Pt+2] (relative stereo) [Compound No. 6, Cis-oxalato(trans-l-1,2-diaminocyclohexane)platinum (II)]	61%	0%	0%	+++ (10-0%)	9%					T/C % (leukemia P 388; P 388, 6.25 mg/kg i.p.): 188%
NC1CCCCC1N.[Cl-].[Cl-].[Pt+2] (stereo not drawn) [Compound No. 1, Cis-dichloro(cis-1,2-diaminocyclohexane)Platinum (II)]				+++ (10-0%)	3%	+ (65-41%)	57%	+++ (10-0%)	0%	LD50 (male mice (ddN strain)): 11.3 mg/kg; T/C % (leukemia L 1210; L 1210, 6.25 mg/kg i.p.): 198%; T/C % (leukemia L 1210; L 1210, 12.5 mg/kg i.p.): 211%; T/C % (leukemia L 1210; L 1210, 25 mg/kg i.p.): 164%; T/C % (leukemia L 1210; L 1210, 100 mg/kg i.p.): 0%; T/C % (leukemia L 1210; L 1210, 200 mg/kg i.p.): 0%; T/C % (leukemia L 1210; L 1210, 400 mg/kg i.p.): 0%
NC1CCCCC1N.[Cl][Pt][Cl] (stereo not drawn) [Compound No. 2, Cis-dichloro(trans-d-1,2-diaminocyclohexane)platinum (II)]				+++ (10-0%)	1%	++ (40-11%)	8%			LD50 (male mice (ddN strain)): 22.5 mg/kg; T/C % (leukemia L 1210; L 1210, 12.5 mg/kg i.p.): 291%; T/C % (leukemia L 1210; L 1210, 25 mg/kg i.p.): 110%; T/C % (leukemia L 1210; L 1210, 50 mg/kg i.p.): 71%; T/C % (leukemia L 1210; L 1210, 100 mg/kg i.p.): 71%; T/C % (leukemia L 1210; L 1210, 200 mg/kg i.p.): 0%
NC1CCCCC1N.[Cl-].[Cl-].[Pt+2] (stereo not drawn) [Compound No. 3, Cis-dichloro(trans-l-1,2-diaminocyclohexane)platinum (II)]				+++ (10-0%)	2%	++ (40-11%)	18%			LD50 (male mice (ddN strain)): 14.1 mg/kg; T/C % (leukemia L 1210; L 1210, 6.25 mg/kg i.p.): 316%; T/C % (leukemia L 1210; L 1210, 12.5 mg/kg i.p.): 379%; T/C % (leukemia L 1210; L 1210, 25 mg/kg i.p.): 88%; T/C % (leukemia L 1210; L 1210, 50 mg/kg i.p.): 71%; T/C % (leukemia L 1210; L 1210, 100 mg/kg i.p.): 0%; T/C % (leukemia L 1210; L 1210, 200 mg/kg i.p.): 0%
NC1CCCCC1N.O=C1[O][Pt][O]C1=O (stereo not drawn) [Compound No. 4, Cis-oxalato(cis-1,2-diaminocyclohexane)platinum (II)]	200%	0%	0%	+++ (10-0%)	0%	+++ (10-0%)	0%	+++ (10-0%)	0%	Growth Rate T/C (%) ([1]; 0.3 mg/kg i.p.): 83%
NC1CCCCC1N.O=C1[O][Pt][O]C1=O (stereo not drawn) [Compound No. 5, Cis-oxalato(trans-d-1,2-diaminocyclohexane)platinum (II)]				+++ (10-0%)	10%					T/C % (leukemia P 388; P 388, 10 mg/kg i.p.): 174%; T/C % (leukemia P 388; P 388, 20 mg/kg i.p.): 195%; T/C % (leukemia P 388; P 388, 40 mg/kg i.p.): 0%
NC1CCCCC1N.O=C([O-])CC(=O)[O-].[Pt+2] (stereo not drawn) [Compound No. 7, Cis-malonato(cis-1,2-diaminocyclohexane)platinum (II)]	142%	155%						+ (65-41%)	61%	T/C % (leukemia P 388; P 388, 12.5 mg/kg i.p.): 126%; Evaluation ([1]; 30 mg/kg i.p.): +++ (10-0%); Growth Rate T/C (%) ([1]; 30 mg/kg i.p.): 0%; Evaluation ([1]; 100 mg/kg i.p.): +++ (10-0%); Growth Rate T/C (%) ([1]; 100 mg/kg i.p.): 0%
NC1CCCCC1N.O=C1CC(=O)[O][Pt][O]1 (stereo not drawn) [Compound No. 8, Cis-malonato(trans-d-1,2-diaminocyclohexane)platinum (II)]	138%	155%						+ (65-41%)	47%	T/C % (leukemia P 388; P 388, 12.5 mg/kg i.p.): 121%; Evaluation ([1]; 30 mg/kg i.p.): +++ (10-0%); Growth Rate T/C (%) ([1]; 30 mg/kg i.p.): 1%; Evaluation ([1]; 100 mg/kg i.p.): +++ (10-0%); Growth Rate T/C (%) ([1]; 100 mg/kg i.p.): 0%
NC1CCCCC1N.O=C([O-])CC(=O)[O-].[Pt+2] (stereo not drawn) [Compound No. 9, Cis-malonato(trans-l-1,2-diaminocyclohexane)platinum (II)]					85%			++ (40-11%)	17%	T/C % (leukemia P 388; P 388, 75 mg/kg i.p.): 202%; T/C % (leukemia P 388; P 388, 150 mg/kg i.p.): 104%; Evaluation ([1]; 30 mg/kg i.p.): + ++; Growth Rate T/C (%) ([1]; 30 mg/kg i.p.): 1%; Evaluation ([1]; 100 mg/kg i.p.): +++ (10-0%); Growth Rate T/C (%) ([1]; 100 mg/kg i.p.): 4%
CC(C(=O)[O-])C(=O)[O-].NC1CCCCC1N.[Pt+2] [Compound No. 10, Cis-methylmalonato(cis-1,2-diaminocyclohexane)platinum (II)]										T/C % (leukemia P 388; P 388, 20 mg/kg i.p.): 102%; T/C % (leukemia P 388; P 388, 40 mg/kg i.p.): 121%; T/C % (leukemia P 388; P 388, 80 mg/kg i.p.): 133%
CC1C(=O)[O][Pt][O]C1=O.NC1CCCCC1N [Compound No. 11, Cis-methylmalonato(trans-d-1,2-diaminocyclohexane)platinum(II)]	121%	138%	154%							
CC(C(=O)[O-])C(=O)[O-].NC1CCCCC1N.[Pt+2] [Compound No. 12, Cis-methylmalonato(trans-l-1,2-diaminocyclohexane)platinum(II)]	115%	122%	141%							
NC1CCCCC1N.[Cl][Pt][Cl] (stereo not drawn) [cis-dichloro (1,2-DAC) Pt(II), reference compound]				+++ (10-0%)	3%	++ (40-11%)	19%			Evaluation ([1]; 0.3 mg/kg i.p.): ++ (40-11%); Growth Rate T/C (%) ([1]; 0.3 mg/kg i.p.): 12%
Cis-uracil(cis-1,2-diaminocyclohexane)platinum (II) [Compound No. 13]			163%							T/C % (leukemia P 388; P 388, 200 mg/kg i.p.): 71%; T/C % (leukemia P 388; P 388, 400 mg/kg i.p.): 0%
Cis-uracil(trans-d-1,2-diaminocyclohexane)platinum (II) [Compound No. 14]		140%	142%							T/C % (leukemia P 388; P 388, 200 mg/kg i.p.): 178%
Cis-uracil(trans-l-1,2-diaminocyclohexane)platinum (II) [Compound No. 15]		155%	181%							T/C % (leukemia P 388; P 388, 200 mg/kg i.p.): 178%
